Laboratory results published in patent publication US20060069132A1, “Azolecarboxamide herbicides” (priority 2004, published 2006).

Key:
goosegrass = assay: Test C pre-/postemergence herbicide test; type: in vivo, Eleusine indica; settings: for Goosegrass plant response rating: 500 g ai/ha
How it was run: (§1)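 Seeds were planted and sprayed preemergence with test chemicals in a non-phytotoxic solvent mixture containing surfactant; postemergence treatments went onto plants 2 to 18 cm tall (1- to 4-leaf stage). After 12 to 14 days in a greenhouse, injury was rated visually against untreated controls on a 0–100 scale.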

redroot pigweed = assay: Test A pre-/postemergence herbicide test; type: in vivo, Amaranthus retroflexus; settings: for Plant response rating, Pigweed: Postemergence; for Pigweed plant response rating: Preemergence
How it was run: (§2)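 Seeds sown in sandy loam received a preemergence directed soil spray of compound in non-phytotoxic solvent with surfactant; postemergence plants (2–10 cm, one- to two-leaf stage) were sprayed to runoff at the same time. After ~10 days in greenhouse, injury was rated visually versus untreated controls (0 = no effect, 100 = complete control).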

velvetleaf [1] = assay: Test A pre-/postemergence herbicide test; type: in vivo, Abutilon theophrasti; settings: for Velvetleaf plant response rating: Preemergence
How it was run: as §2

soybean = assay: Test C pre-/postemergence herbicide test; type: in vivo, Glycine max; settings: for Soybean plant response rating: 500 g ai/ha
How it was run: as §1

woolly cupgrass = assay: Test C pre-/postemergence herbicide test; type: in vivo, Eriochloa villosa; settings: for Cupgrass, Woolly plant response rating: 500 g ai/ha
How it was run: as §1

barnyardgrass = assay: Test C flooded paddy test; type: in vivo, Echinochloa crus-galli
How it was run: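 Plants were grown to the 1- to 4-leaf stage (2–18 cm) and then treated postemergence, or grown to the 2-leaf stage for the flooded paddy test. They were held in a greenhouse for 12 to 14 days and then scored by eye against controls, where 0 is no effect and 100 is complete control.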

corn = assay: Test C pre-/postemergence herbicide test; type: in vivo, Zea mays; settings: for Corn plant response rating: 500 g ai/ha
How it was run: as §1

bermudagrass = assay: Test C pre-/postemergence herbicide test; type: in vivo, Cynodon dactylon
How it was run: as §1

giant foxtail = assay: Test C pre-/postemergence herbicide test; type: in vivo, Setaria faberi; settings: for Foxtail, Giant plant response rating: 500 g ai/ha
How it was run: as §1

velvetleaf [2] = assay: Test C pre-/postemergence herbicide test; type: in vivo, Abutilon theophrasti; settings: for Velvetleaf plant response rating: 500 g ai/ha
How it was run: as §1

yellow nutsedge = assay: Test C pre-/postemergence herbicide test; type: in vivo, Cyperus esculentus; settings: for Nutsedge, Yellow plant response rating: 500 g ai/ha
How it was run: as §1

kochia = assay: Test C pre-/postemergence herbicide test; type: in vivo, Kochia scoparia; settings: for Kochia plant response rating: 500 g ai/ha
How it was run: as §1

cocklebur = assay: Test C pre-/postemergence herbicide test; type: in vivo, Xanthium strumarium; settings: for Cocklebur plant response rating: 500 g ai/ha
How it was run: as §1

morningglory = assay: Test C pre-/postemergence herbicide test; type: in vivo, Ipomoea coccinea; design: key to Plant response rating, Morningglory: 0 = no effect, 100 = complete control; settings: for Morningglory plant response rating: 500 g ai/ha
How it was run: as §1

[3] = 125 g ai/ha, scale 0 (no effect) to 100 (complete control), visual, 12 to 14 days, preemergence
[4] = 250 g ai/ha, scale 0 to 100 (0 no effect, 100 complete control), visual, 12 to 14 days, preemergence
[5] = Postemergence, 125 g ai/ha, scale 0 to 100, 0 no effect, 100 complete control
[6] = Postemergence, 250 g ai/ha, scale 0 to 100, 0 no effect, 100 complete control
[7] = Preemergence, scale 0 to 100, 0 no effect, 100 complete control
[8] = postemergence, 62 g ai/ha, scale 0 to 100
[9] = 2000 g ai/ha, 0 to 100 scale, 0 no effect, 100 complete control
[10] = 500 g ai/ha, visual rating, 0 to 100 scale (0 no effect, 100 complete control)

CCNC(=O)c1cc(NC(=O)c2cc(C(C)(C)C)nn2CC)ccc1F [Compound 58]
Plant response rating (0 = no effect, 100 = complete control), Goosegrass (goosegrass; 62 g ai/ha, preemergence): 90
Plant response rating, Goosegrass (goosegrass; [3]): 95
Plant response rating, Goosegrass (goosegrass; [4]): 95
Goosegrass plant response rating (goosegrass; Postemergence, scale 0 to 100): 30
Plant response rating, Goosegrass (goosegrass; [5]): 5
Plant response rating, Goosegrass (goosegrass; [6]): 10
Goosegrass plant response rating (goosegrass; [7]): 95
Plant response rating, Goosegrass (goosegrass; [8]): 0
Plant response rating, Pigweed (redroot pigweed; 500 g ai/ha, 0 to 100 scale, 0 no effect, 100 complete control): 70
Plant response rating, Pigweed (redroot pigweed; [9]): 90
Pigweed plant response rating (redroot pigweed; [10]): 100
Pigweed plant response rating (redroot pigweed; [9]): 100
Plant response rating, Velvetleaf (velvetleaf [1]; Postemergence, 2000 g ai/ha, 0 to 100 scale, 0 no effect, 100 complete control): 40
Velvetleaf plant response rating (velvetleaf [1]; [10]): 70
Velvetleaf plant response rating (velvetleaf [1]; [9]): 65
Plant response rating (0 = no effect, 100 = complete control), Soybean (soybean; 62 g ai/ha, preemergence): 0
Plant response rating, Soybean (soybean; [3]): 5
Plant response rating, Soybean (soybean; [4]): 25
Soybean plant response rating (soybean; Postemergence, scale 0 to 100): 90
Plant response rating, Soybean (soybean; [6]): 80
Soybean plant response rating (soybean; [7]): 40
Plant response rating, Soybean (soybean; [8]): 15
Plant response rating (0 = no effect, 100 = complete control), Cupgrass, Woolly (woolly cupgrass; 62 g ai/ha, preemergence): 0
Plant response rating, Cupgrass, Woolly (woolly cupgrass; [3]): 40
Plant response rating, Cupgrass, Woolly (woolly cupgrass; [4]): 60
Cupgrass, Woolly plant response rating (woolly cupgrass; Postemergence, scale 0 to 100): 20
Plant response rating, Cupgrass, Woolly (woolly cupgrass; [5]): 5
Plant response rating, Cupgrass, Woolly (woolly cupgrass; [6]): 20
Cupgrass, Woolly plant response rating (woolly cupgrass; [7]): 80
Plant response rating, Cupgrass, Woolly (woolly cupgrass; [8]): 5
Barnyardgrass plant response rating (barnyardgrass; 62 g ai/ha, scale 0 to 100 (0 no effect, 100 complete control)): 0
Barnyardgrass plant response rating (barnyardgrass; 125 g ai/ha, scale of 0 to 100, 0 is no effect, 100 is complete control): 10
Barnyardgrass plant response rating (barnyardgrass; 250 g ai/ha, scale of 0 to 100, 0 is no effect, 100 is complete control): 35
Plant response rating, Barnyardgrass (barnyardgrass; 500 g ai/ha, visual rating after 12 to 14 days, scale 0 to 100 (0 no effect, 100 complete control)): 85
Plant response rating (0 = no effect, 100 = complete control), Corn (corn; 62 g ai/ha, preemergence): 0
Plant response rating, Corn (corn; [3]): 0
Plant response rating, Corn (corn; [4]): 0
Corn plant response rating (corn; Postemergence, scale 0 to 100): 15
Plant response rating, Corn (corn; [5]): 5
Plant response rating, Corn (corn; [6]): 5
Corn plant response rating (corn; [7]): 0
Plant response rating, Corn (corn; [8]): 0
Plant response rating (0 = no effect, 100 = complete control), Bermudagrass (bermudagrass; 62 g ai/ha, preemergence): 90
Plant response rating, Bermudagrass (bermudagrass; [3]): 100
Plant response rating, Bermudagrass (bermudagrass; [4]): 100
Bermudagrass plant response rating (bermudagrass; Postemergence, 500 g ai/ha, scale 0 to 100): 10
Plant response rating, Bermudagrass (bermudagrass; [5]): 5
Bermudagrass plant response rating (bermudagrass; Postemergence, 250 g ai/ha, scale 0 to 100): 10
Bermudagrass plant response rating (bermudagrass; Preemergence, 500 g ai/ha, scale 0 to 100, 0 no effect, 100 complete control): 100
Plant response rating, Bermudagrass (bermudagrass; [8]): 0
Plant response rating (0 = no effect, 100 = complete control), Foxtail, Giant (giant foxtail; 62 g ai/ha, preemergence): 70
Plant response rating, Foxtail, Giant (giant foxtail; [3]): 100
Plant response rating, Foxtail, Giant (giant foxtail; [4]): 100
Foxtail, Giant plant response rating (giant foxtail; Postemergence, scale 0 to 100): 40
Plant response rating, Foxtail, Giant (giant foxtail; [5]): 5
Plant response rating, Foxtail, Giant (giant foxtail; [6]): 20
Foxtail, Giant plant response rating (giant foxtail; [7]): 100
Plant response rating, Foxtail, Giant (giant foxtail; [8]): 0
Plant response rating, Velvetleaf (velvetleaf [2]; [3]): 100
Plant response rating, Velvetleaf (velvetleaf [2]; [4]): 100
Velvetleaf plant response rating (velvetleaf [2]; Postemergence, scale 0 to 100): 60
Plant response rating, Velvetleaf (velvetleaf [2]; [6]): 35
Velvetleaf plant response rating (velvetleaf [2]; [7]): 100
Plant response rating, Velvetleaf (velvetleaf [2]; [8]): 10
Plant response rating (0 = no effect, 100 = complete control), Nutsedge, Yellow (yellow nutsedge; 62 g ai/ha, preemergence): 10
Plant response rating, Nutsedge, Yellow (yellow nutsedge; [3]): 20
Plant response rating, Nutsedge, Yellow (yellow nutsedge; [4]): 50
Nutsedge, Yellow plant response rating (yellow nutsedge; Postemergence, scale 0 to 100): 5
Plant response rating, Nutsedge, Yellow (yellow nutsedge; [6]): 5
Nutsedge, Yellow plant response rating (yellow nutsedge; [7]): 50
Plant response rating, Nutsedge, Yellow (yellow nutsedge; [8]): 0
Plant response rating (0 = no effect, 100 = complete control), Kochia (kochia; 62 g ai/ha, preemergence): 95
Plant response rating, Kochia (kochia; [3]): 95
Plant response rating, Kochia (kochia; [4]): 95
Kochia plant response rating (kochia; Postemergence, scale 0 to 100): 85
Plant response rating, Kochia (kochia; [5]): 80
Plant response rating, Kochia (kochia; [6]): 80
Kochia plant response rating (kochia; [7]): 100
Plant response rating, Kochia (kochia; [8]): 75
Plant response rating (0 = no effect, 100 = complete control), Cocklebur (cocklebur; 62 g ai/ha, preemergence): 0
Plant response rating, Cocklebur (cocklebur; [3]): 5
Plant response rating, Cocklebur (cocklebur; [4]): 10
Cocklebur plant response rating (cocklebur; Postemergence, scale 0 to 100): 50
Plant response rating, Cocklebur (cocklebur; [5]): 20
Plant response rating, Cocklebur (cocklebur; [6]): 20
Cocklebur plant response rating (cocklebur; [7]): 30
Plant response rating, Cocklebur (cocklebur; [8]): 15
Plant response rating (0 = no effect, 100 = complete control), Morningglory (morningglory; 62 g ai/ha, preemergence): 10
Plant response rating, Morningglory (morningglory; [3]): 20
Plant response rating, Morningglory (morningglory; [4]): 50
Morningglory plant response rating (morningglory; Postemergence, scale 0 to 100): 20
Plant response rating, Morningglory (morningglory; [6]): 10
Morningglory plant response rating (morningglory; [7]): 80
Plant response rating, Morningglory (morningglory; [8]): 10
